Reference: patent publication US20210061859A1, “NTCP Inhibitor” (The University of Tokyo, priority 2018, published 2021)
Where a SMILES comes first, the peptide text is derived from it. Bridges are numbered along the chain shown (N, C = ends). [ ]: non-standard residue; d: D form. NMeA = CN[C@@H](C)C(=O)O; Sar = CNCC(=O)O

T1: human NTCP (Homo sapiens, UniProt Q14973)
T1 construct: made in house; host or cells: wheat germ cell-free protein synthesis system
T1 sequence (Q14973 1-349): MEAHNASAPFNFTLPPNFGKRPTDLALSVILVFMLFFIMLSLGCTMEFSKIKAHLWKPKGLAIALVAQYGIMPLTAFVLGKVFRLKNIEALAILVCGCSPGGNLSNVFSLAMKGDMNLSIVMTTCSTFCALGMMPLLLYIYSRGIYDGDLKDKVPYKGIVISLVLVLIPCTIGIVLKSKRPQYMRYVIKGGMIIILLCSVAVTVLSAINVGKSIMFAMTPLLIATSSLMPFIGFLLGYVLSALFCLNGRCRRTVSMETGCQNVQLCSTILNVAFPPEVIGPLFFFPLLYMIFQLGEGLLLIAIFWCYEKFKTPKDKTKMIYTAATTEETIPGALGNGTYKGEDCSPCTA

T2: human NTCP on cells (HepG2-hNTCP-C4 cells overexpressing the human NTCP gene; primary human hepatocytes) (human), Q14973
T2 chain: T1 sequence (Q14973 1-349)

T3: His-tagged recombinant NTCP protein (human sodium taurocholate cotransporting polypeptide) (human), Q14973
T3 chain: T1 sequence (Q14973 1-349)

B1: WD1 (peptide)
peptide: YFIIVGTWTWTWSCT
modifications: not checked
B2: WL2 (peptide)
peptide: YIWIWPGYVIYCT
modifications: not checked
B3: WL4 (peptide)
peptide: YVIWIWPNHFYYCT
modifications: not checked

Legend:
[1] = target: T1, human NTCP; experiment: Surface plasmon resonance binding to immobilized recombinant NTCP; settings: Kd, single-cycle kinetics, 1:1 binding model, NTCP immobilized on NTA-Ni2+
Protocol: (§1) FIG. 7 is a diagram showing the NTCP association constant of a peptide identified by first RaPID screening. A single-cycle reaction kinetics experiment was conducted using NTCP immobilized on surface (NTA-Ni^2+) involving varying concentrations of a cyclic peptide analyte. In each case, as shown in the drawing, the peptide was tested with 4-fold serial dilutions starting from the highest concentration of 200 or 1000 nM. A dissociation constant (KD) was determined using a 1:1 binding model.
as §1, with “9” for “7”, “focused library” for “first”, “association constant” for “reaction kinetics”
The association constant of each peptide for human NTCP was measured using a Biacore T200 apparatus (GE Healthcare Japan Corp.). The running buffer solution used was HBS-P+ (10 mM HEPES, 150 mM NaCl, and 0.05 vol % surfactant P20, pH 7.4) containing 0.1 vol % DMSO and 1 mM β-dodecyl-maltoside. 100 nM recombinant NTCP was immobilized on a NTA chip treated with Ni^2+ according to the manufacturer's instructions (baseline response: 1000 to 3000 refraction units). Peptides were injected as analytes at a flow rate of 60 μL/min, and association constants were modelled using a 1:1 binding model.

[2] = test system: HBV genotype D; type: cell-based, hepatitis B virus; settings: primary human hepatocytes, peptide at 100 μM, 12 days after inoculation
Protocol: FIG. 2 is a diagram showing the anti-HBV effect of a peptide from initial screening. FIG. 2(a) is a schematic diagram of a HepG2-hNTCP-C4 infection experiment. HepG2-hNTCP-C4 cells were pretreated with a peptide for 2 hours and subsequently inoculated with HBV for 16 hours in the presence of the peptide. Free HBV and peptide were washed off. Then, the cells were further cultured for 12 days in the absence of the peptide, and HBV infection was evaluated on the basis of measurement of HBs antigen in the culture supernatant. The filled boxes and the broken-line boxes depict periods for which the treatment was performed and periods for which the treatment was not performed, respectively. […] HBV infection was evaluated by monitoring HBs antigen secreted into a culture supernatant on 12 days after inoculation by ELISA. In FIG. 2(c), a cell survival rate was measured by MTT assay.
FIG. 3 is a diagram showing the anti-HBV effect of a peptide by focused library screening. […] HBV infection was evaluated by measurement of HBe antigen (a), and a cell survival rate (b) was evaluated by MTT assay as shown in FIG. 2.
HBV genotype D used in this study (FIGS. 1 to 3) was derived from the culture supernatant of Hep38.7-Tet cells, and prepared by a known method (the method described in Tsukuda, S. et al. Dysregulation of retinoic acid receptor diminishes hepatocyte permissiveness to hepatitis B virus infection through modulation of sodium taurocholate cotransporting polypeptide (NTCP) expression. The Journal of biological chemistry 290, 5673-5684 (2015), and Ogura, N., Watashi, K., Noguchi, T. & Wakita, T. Formation of covalently closed circular DNA in Hep38.7-Tet cells, a tetracycline inducible hepatitis B virus expression cell line. Biochemical and biophysical research communications 452, 315-321 (2014)). Purified HBV (FIG. 1(d)) was prepared by ultrafiltration to remove an excess of components in FBS and medium. HBV genotypes A, B, and C and genotype C having the L180M/S202G/M204V mutations (nucleoside analog-resistant HBV) or G145R substitution (vaccine-escape HBV) (FIG. 4(d)) were prepared from the culture supernatant of HepG2 cells transfected with the corresponding expression plasmid. HBV was inoculated at 12,000 (FIGS. 1(a), 1(b), and 1(d)), 1000 to 2000 (FIG. 2(b)) or 500 (FIGS. 3(a) and 4(d)) genome equivalents (GEq)/cell in the presence of 4% polyethylene glycol 8000 (PEG8000) and incubated at 37° C. for 16 hours by a known method (the method described in Watashi, K. et al. Interleukin-1 and tumor necrosis factor-alpha trigger restriction of hepatitis B virus infection via a cytidine deaminase activation-induced cytidine deaminase (AID). The Journal of biological chemistry 288, 31715-31727 (2013)).
HBe antigen was detected by a chemiluminescence immunoassay (CLIA) (LSI Medience Corp.). HBs antigen was quantified by enzyme-linked immunosorbent assay (ELISA) as described in a known method (the method described in Watashi, K. et al. Interleukin-1 and tumor necrosis factor-alpha trigger restriction of hepatitis B virus infection via a cytidine deaminase activation-induced cytidine deaminase (AID). The Journal of biological chemistry 288, 31715-31727 (2013)).
Subsequently, the present inventors evaluated the effect of the 10 peptides described above on HBV infection in primary human hepatocytes. […] HBV infection was evaluated by measuring HBs antigen in the culture supernatant. […]

[3] = target: T2, human NTCP on cells (HepG2-hNTCP-C4 …); experiment: cell-based or functional assay
[4] = target: T3, His-tagged recombinant NTCP protein …; experiment: SPR (Biacore T200), single-cycle kinetics, His-NTCP on Ni2+-NTA chip, peptide as analyte, 1:1 model

Molecule	Kd [1] [nM]	HBs antigen in the culture supernatant [2]	50% inhibitory concentration (IC50), HBs antigen in culture supernatant, HBV infection assay [3] [nM]	Kd [4] [nM]
CC[C@H](C)[C@@H]1NC(=O)[C@H](C)NC(=O)[C@H](Cc2c[nH]c3ccccc23)NC(=O)[C@H](Cc2c[nH]c3ccccc23)NC(=O)[C@@H](Cc2ccc(O)cc2)NC(=O)CSC[C@@H](C(=O)NCC(N)=O)NC(=O)[C@@H]2CCCN2C(=O)[C@H](Cc2c[nH]c3ccccc23)NC(=O)[C@H]([C@@H](C)O)NC(=O)[C@H](Cc2ccccc2)NC(=O)[C@H](C(C)C)NC(=O)[C@H](Cc2c[nH]cn2)NC(=O)[C@H]([C@@H](C)CC)NC(=O)[C@H](Cc2c[nH]cn2)NC(=O)[C@@H]2CCCN2C(=O)[C@H](CC(N)=O)NC1=O [D2] ({CH2CO}-[dY]WWAINPHIHVFTWPCG-NH2; thioether N-16)	14	most active	–	–
CC[C@H](C)[C@@H]1NC(=O)[C@H](Cc2c[nH]c3ccccc23)NC(=O)[C@H]([C@@H](C)CC)NC(=O)[C@H](Cc2ccccc2)NC(=O)[C@H](CO)NC(=O)[C@H](CC(N)=O)NC(=O)[C@H](CCC(N)=O)NC(=O)[C@H](Cc2c[nH]c3ccccc23)NC(=O)[C@H]([C@@H](C)O)NC(=O)[C@H](Cc2c[nH]c3ccccc23)NC(=O)[C@H]([C@@H](C)O)NC(=O)[C@H](Cc2ccc(O)cc2)NC(=O)CSC[C@@H](C(=O)N[C@H](C(N)=O)[C@@H](C)O)NC(=O)[C@H](Cc2ccc(O)cc2)NC1=O [WL5] ({CH2CO}-YTWTWQNSFIWIYCT-NH2; thioether N-14)	10	–	–	–
CC[C@H](C)[C@@H]1NC(=O)CN(C)C(=O)[C@H](CO)NC(=O)[C@H](Cc2ccc(O)cc2)NC(=O)[C@H](CCCCN)NC(=O)[C@H](Cc2ccc(O)cc2)NC(=O)[C@H]([C@@H](C)O)NC(=O)[C@H](Cc2ccc(O)cc2)NC(=O)CSC[C@@H](C(=O)N[C@H](C(N)=O)[C@@H](C)O)NC(=O)[C@H](Cc2c[nH]c3ccccc23)NC(=O)[C@H]([C@@H](C)CC)NC(=O)[C@H](Cc2c[nH]c3ccccc23)NC(=O)[C@H]([C@@H](C)CC)NC(=O)[C@H](Cc2c[nH]c3ccccc23)NC1=O [WL1] ({CH2CO}-YTYKYS[Sar]IWIWIWCT-NH2; thioether N-14)	360	–	–	–
CC[C@H](C)[C@@H]1NC(=O)[C@@H](Cc2ccc(O)cc2)NC(=O)CSC[C@@H](C(=O)NCC(N)=O)NC(=O)[C@H](CO)NC(=O)[C@H](Cc2ccc(O)cc2)NC(=O)[C@H](CC(C)C)NC(=O)[C@H](CC(C)C)NC(=O)[C@H](Cc2ccccc2)NC(=O)[C@H](CC(C)C)NC(=O)[C@H](Cc2c[nH]cn2)NC(=O)[C@H](CC(C)C)NC(=O)[C@H](CCC(=O)O)NC(=O)[C@@H]2CCCN2C(=O)[C@H](Cc2ccc(O)cc2)NC(=O)[C@H](C(C)C)NC(=O)[C@H](CC(C)C)NC1=O [D4] ({CH2CO}-[dY]ILVYPELHLFLLYSCG-NH2; thioether N-16)	2270	most active	–	–
CC[C@H](C)[C@@H]1NC(=O)[C@H](Cc2c[nH]c3ccccc23)NC(=O)[C@H](CC(C)C)NC(=O)[C@H](Cc2ccc(O)cc2)NC(=O)CSC[C@@H](C(=O)NCC(N)=O)NC(=O)CNC(=O)[C@H](CC(C)C)NC(=O)[C@H](CC(=O)O)NC(=O)[C@H](Cc2ccccc2)NC(=O)[C@H]([C@@H](C)O)NC(=O)[C@H](Cc2ccc(O)cc2)NC(=O)[C@H](Cc2c[nH]c3ccccc23)NC(=O)[C@H](CC(N)=O)NC(=O)[C@H](CCC(N)=O)NC(=O)[C@H](Cc2c[nH]cn2)NC(=O)[C@H](Cc2ccccc2)NC1=O [L3] ({CH2CO}-YLWIFHQNWYTFDLGCG-NH2; thioether N-16)	13	–	–	–
CC(C)C[C@@H]1NC(=O)[C@H](Cc2ccc(O)cc2)NC(=O)CSC[C@@H](C(=O)NCC(N)=O)NC(=O)[C@H](CC(C)C)NC(=O)[C@H](CO)NC(=O)[C@H]([C@@H](C)O)NC(=O)[C@H](C(C)C)NC(=O)[C@H]([C@@H](C)O)NC(=O)[C@H](Cc2c[nH]c3ccccc23)NC(=O)[C@H](CC(N)=O)NC(=O)[C@H](CO)NC(=O)[C@H](Cc2c[nH]cn2)NC(=O)[C@H](Cc2c[nH]c3ccccc23)NC(=O)[C@H]([C@@H](C)O)NC(=O)[C@H](Cc2c[nH]c3ccccc23)NC(=O)[C@H]([C@@H](C)O)NC(=O)[C@H](Cc2ccc(O)cc2)NC1=O [L1] ({CH2CO}-YLYTWTWHSNWTVTSLCG-NH2; thioether N-17)	21	–	–	–
CC[C@H](C)[C@@H]1NC(=O)[C@H](Cc2c[nH]c3ccccc23)NC(=O)[C@H]([C@@H](C)CC)NC(=O)[C@H](CCC(N)=O)NC(=O)[C@H](C)N(C)C(=O)[C@H](Cc2ccc(O)cc2)NC(=O)[C@H]([C@@H](C)O)NC(=O)[C@H](Cc2ccccc2)NC(=O)[C@H]([C@@H](C)O)NC(=O)[C@@H](Cc2ccc(O)cc2)NC(=O)CSC[C@@H](C(=O)N[C@H](C(N)=O)[C@@H](C)O)NC(=O)CN(C)C(=O)[C@H](Cc2ccc(O)cc2)NC(=O)[C@H](Cc2ccc(O)cc2)NC(=O)[C@H](Cc2c[nH]c3ccccc23)NC1=O [WD4] ({CH2CO}-[dY]TFTY[NMeA]QIWIWYY[Sar]CT-NH2; thioether N-15)	11	–	–	–
B1	–	–	850	15
B2	–	–	2540	157
B3	–	–	660	42
